Patent US8426447B2, “Spiro-tricyclic ring compounds as beta-secretase modulators and methods of use” (Amgen Inc., priority 2008, dated 2013)
Blank lines part the entries; values can stand above or below the compound they belong to.

Key:
BACE1 [1] = target: T1, BACE1 (Homo sapiens, UniProt P56817); assay: In Vitro BACE Cell-based Assay (HEK cell assay): Aβ40 in conditioned medium of cells stably expressing Amyloid Precursor Protein, sandwich ELISA
Method in brief: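 First, APP-stable cells grow 24 h at 37° C., 5% CO2. Next, test compounds are added for 24 h (10 doses, 0.1% DMSO). Finally, medium Aβ40 is determined by pAb40/6E10 sandwich ELISA with Europium TRF, and IC50 is calculated.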

BACE1 [2] = target: T1, BACE1; assay: In Vitro Enzymatic BACE FRET (Fluorescence Resonance Energy Transfer) Assay; assay type: biochemical
Method in brief: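 Acetate buffer at pH 4.2 with 10% DMSO and 100 uM genapol hosts the enzymatic reaction, initiated by 50 nM FRET substrate and allowed to proceed one hour. Tris quench to neutral pH precedes the fluorescence measurement.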

[3] = Table 1, Aβ40, 24 h incubation, read-out: HEK cell assay
[4] = Table 1, read-out: BACE1 FRET assay
[5] = Table III, IC50's in uM ranges, read-out: HEK cell assay
[6] = Table III, IC50's in uM ranges, read-out: BACE1 FRET assay
[7] = HEK cell-based assay, Aβ40 in conditioned medium, IC50 class symbols, read-out: HEK cell assay
[8] = in vitro BACE FRET enzyme assay, IC50 class symbols, read-out: BACE1 FRET assay
[9] = Table IV, class symbols, read-out: HEK cell assay
[10] = Table IV, class symbols, read-out: BACE1 FRET assay
[11] = Table II, Aβ40, 24 h incubation, read-out: HEK cell assay
[12] = Table II, read-out: BACE1 FRET assay

T1 sequence (P56817 46-501, species assumed): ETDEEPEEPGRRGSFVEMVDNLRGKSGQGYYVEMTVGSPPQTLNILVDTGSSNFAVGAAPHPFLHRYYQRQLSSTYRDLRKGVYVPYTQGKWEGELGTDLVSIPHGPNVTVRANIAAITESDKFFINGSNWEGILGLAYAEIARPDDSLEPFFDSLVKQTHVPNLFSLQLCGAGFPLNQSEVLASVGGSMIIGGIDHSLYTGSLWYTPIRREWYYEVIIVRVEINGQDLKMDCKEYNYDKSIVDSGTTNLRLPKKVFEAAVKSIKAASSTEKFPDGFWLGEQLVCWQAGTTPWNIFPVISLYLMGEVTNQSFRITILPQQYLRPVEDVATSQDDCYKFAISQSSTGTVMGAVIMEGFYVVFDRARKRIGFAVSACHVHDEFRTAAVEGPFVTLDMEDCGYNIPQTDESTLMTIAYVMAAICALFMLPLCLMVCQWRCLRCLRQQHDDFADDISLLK

Compound: NC1=N[C@@]2(CO1)c1cc(-c3cccnc3)ccc1Oc1ccc(-c3cccnc3)nc12 [compound 989]
IC50 (BACE1 [1]; read-out: HEK cell assay): 0.1 to 1 µM | IC50 (BACE1 [2]; read-out: BACE1 FRET assay): 0.1 to 1 µM

Compound: COC(C)(C)C#Cc1ccc2c(c1)[C@@]1(COC(N)=N1)c1cc(OCC(C)(C)O)ccc1O2 [compound 768]
IC50 (BACE1 [1]; read-out: HEK cell assay): 0.1 to 1 µM | IC50 (BACE1 [2]; read-out: BACE1 FRET assay): 0.1 to 1 µM

Compound: CC(C)(C)COc1ccc2c(c1)[C@@]1(COC(N)=N1)c1cc(-c3ccc(F)nc3)cnc1O2 [compound 951]
IC50 (BACE1 [1]; read-out: HEK cell assay): < 0.1 µM | IC50 (BACE1 [2]; read-out: BACE1 FRET assay): < 0.1 µM

Compound: NC1=N[C@@]2(CO1)c1cc(-c3cccnc3F)ccc1Oc1ccc(C3=CCOCC3)nc12 [compound 400]
IC50 (BACE1 [1]; [7]): < 0.1 µM | IC50 (BACE1 [2]; [8]): < 0.1 µM

Compound: CC(C)(C)COc1ccc2c(c1)[C@]1(COC(N)=N1)c1cc(-c3ccsc3)ccc1O2 [compound 833]
IC50 (BACE1 [1]; [9]): 1 to 5 µM | IC50 (BACE1 [2]; [10]): < 0.1 µM

Compound: NC1=N[C@]2(CO1)c1cc(/C=C/C(=O)O)ccc1Oc1ccc(-c3cncnc3)cc12 [compound 948]
IC50 (BACE1 [1]; read-out: HEK cell assay): > 5 µM | IC50 (BACE1 [2]; read-out: BACE1 FRET assay): 0.1 to 1 µM

Compound: NC1=N[C@]2(CO1)c1cc(OCC3CCCC3)ccc1Oc1ccc(-c3cncnc3)cc12 [Example 74, (4S)-2′-(cyclopentylmethoxy)-7′-(5-pyrimidinyl)spiro[1,3-oxazole-4,9′-xanthen]-2-amine]
IC50 (BACE1 [1]; [11]): < 0.1 µM | IC50 (BACE1 [2]; [12]): < 0.1 µM

Compound: CC(C)(C)CCOc1nccc2c1[C@@]1(COC(N)=N1)c1cc(-c3cccnc3)ccc1O2 [compound 931]
IC50 (BACE1 [1]; read-out: HEK cell assay): > 5 µM | IC50 (BACE1 [2]; read-out: BACE1 FRET assay): 1 to 5 µM

Compound: CC(C)(C#N)COc1cc2c(cc1F)Oc1ccc(-c3cccnc3)cc1[C@@]21COC(N)=N1 [compound 547]
IC50 (BACE1 [1]; [9]): < 0.1 µM | IC50 (BACE1 [2]; [10]): < 0.1 µM

Compound: CC(C)(O)C#Cc1ccc2c(c1)C1(COC(N)=N1)c1cc(C#CC(C)(C)O)cnc1O2 (centres unmarked) [Example 114, 4,4′-(−2′-aminospiro[chromeno[2,3-b]pyridine-5,4′-[1,3]oxazole]-3,7-diyl)bis(2-methyl-3-butyn-2-ol)]
IC50 (BACE1 [1]; [5]): 0.1 to 1 µM | IC50 (BACE1 [2]; [6]): 0.1 to 1 µM

Compound: COc1ccc2c(c1)[C@]1(COC(N)=N1)c1cc(C#CC(C)(C)OC)cnc1O2 [compound 901]
IC50 (BACE1 [1]; [9]): > 5 µM | IC50 (BACE1 [2]; [10]): 1 to 5 µM

Compound: Cc1cc(-c2ccc3c(n2)[C@]2(COC(N)=N2)c2cc(-c4cccnc4F)ccc2O3)ccn1 [compound 401]
IC50 (BACE1 [1]; [7]): < 0.1 µM | IC50 (BACE1 [2]; [8]): 0.1 to 1 µM

Compound: CC(C)(C)COc1ccc2c(c1)[C@@]1(COC(N)=N1)c1cc(-c3ccc(C#N)nc3)ccc1O2 [compound 782]
IC50 (BACE1 [1]; read-out: HEK cell assay): 0.1 to 1 µM | IC50 (BACE1 [2]; read-out: BACE1 FRET assay): < 0.1 µM

Compound: NC1=N[C@@]2(CO1)c1cc(-c3cccnc3)ccc1Oc1cnc(N3CCN(CC(=O)O)CC3)cc12 [compound 396]
IC50 (BACE1 [1]; [7]): 0.1 to 1 µM | IC50 (BACE1 [2]; [8]): < 0.1 µM

Compound: CC(C)(C)COc1ccc2c(c1)[C@]1(COC(N)=N1)c1cc(C(=O)N3CCC3)ccc1O2 [compound 608]
IC50 (BACE1 [1]; [9]): 0.1 to 1 µM | IC50 (BACE1 [2]; [10]): 0.1 to 1 µM

Compound: CC(C)(C)COc1ccc2c(c1)[C@]1(COC(N)=N1)c1cc(-c3cccnc3C(F)(F)F)ccc1O2 [compound 911]
IC50 (BACE1 [1]; [9]): > 5 µM | IC50 (BACE1 [2]; [10]): 0.1 to 1 µM

Now from value to compound:

IC50 (BACE1 [1]; [3]): 1 to 5 µM | IC50 (BACE1 [2]; [4]): 1 to 5 µM
Compound: COc1ccc2c(c1)C1(COC(N)=N1)c1cc(-c3cccnc3F)ccc1O2 (centres unmarked) [Example 16, 2′-(2-fluoro-3-pyridinyl)-7′-methoxyspiro[1,3-oxazole-4,9′-xanthen]-2-amine]

IC50 (BACE1 [1]; [5]): < 0.1 µM | IC50 (BACE1 [2]; [6]): < 0.1 µM
Compound: NC1=N[C@@]2(CO1)c1cc(-c3cccnc3)ccc1Oc1cnc(-c3cccnc3)cc12 [compound 184]

IC50 (BACE1 [1]; [9]): 1 to 5 µM | IC50 (BACE1 [2]; [10]): 0.1 to 1 µM
Compound: NC1=N[C@@]2(CO1)c1cc(-c3cccnc3)ccc1Oc1ccc(-c3csc(N4CCCC4)n3)cc12 [compound 624]

IC50 (BACE1 [1]; [9]): 0.1 to 1 µM | IC50 (BACE1 [2]; [10]): < 0.1 µM
Compound: CC(C)C(O)COc1ccc2c(c1)[C@]1(COC(N)=N1)c1cc(-c3cccnc3)ccc1O2 (some centres unmarked) [compound 866]

IC50 (BACE1 [1]; [11]): 1 to 5 µM | IC50 (BACE1 [2]; [12]): 0.1 to 1 µM
Compound: Cn1cc(-c2ccc3c(c2)[C@@]2(COC(N)=N2)c2cc(OCC(C)(C)C)ccc2O3)cn1 [Example 82, (4S)-2′-(2,2-dimethylpropoxy)-7′-(1-methyl-1H-pyrazol-4-yl)spiro[1,3-oxazole-4,9′-xanthen]-2-amine]

IC50 (BACE1 [1]; [5]): 0.1 to 1 µM | IC50 (BACE1 [2]; [6]): < 0.1 µM
Compound: Cc1ccccc1-c1ccc2c(c1)[C@]1(COC(N)=N1)c1cc(-c3cncnc3)ccc1O2 [compound 220]

IC50 (BACE1 [1]; HEK cell assay, Table IV, class symbols): < 0.1 µM | IC50 (BACE1 [2]; BACE1 FRET assay, Table IV, class symbols): < 0.1 µM
Compound: NC1=N[C@@]2(CO1)c1cc(-c3cccnc3F)ccc1Oc1cnc(C3=CCOCC3)cc12 [Example 294, (S)-3-(3,6-dihydro-2H-pyran-4-yl)-7-(2-fluoropyridin-3-yl)-5′H-spiro[chromeno[2,3-c]pyridine-5,4′-oxazol]-2′-amine]

IC50 (BACE1 [1]; read-out: HEK cell assay): < 0.1 µM | IC50 (BACE1 [2]; read-out: BACE1 FRET assay): < 0.1 µM
Compound: NC1=N[C@@]2(CO1)c1cc(-c3cccnc3)ccc1Oc1ccc(-c3cscn3)cc12 [compound 671]

IC50 (BACE1 [1]; [3]): > 5 µM | IC50 (BACE1 [2]; [4]): 1 to 5 µM
Compound: COc1ccc(F)c(-c2ccc3c(c2)C2(COC(N)=N2)c2cc(OC)ccc2O3)c1 (centres unmarked) [Example 15, 2′-(2-fluoro-5-methoxyphenyl)-7′-methoxyspiro[1,3-oxazole-4,9′-xanthen]-2-amine]
